Data published in ChEMBL document CHEMBL3885881, “DrugMatrix”.

Species on record: Rattus norvegicus
Test: DrugMatrix - Regimen: Daily Repeat
Assay type: toxicity, organism-based, Sprague-Dawley
Set-up: regimen Daily Repeat, gender Male, age 6-8 weeks
Details: in vivo, po, route oral GAVAGE, vehicle .5 % CMC; for ABSOLUTE BASOPHIL / ABSOLUTE EOSINOPHIL / ABSOLUTE LYMPHOCYTE / ABSOLUTE MONOCYTE / ABSOLUTE SEGMENTED NEUTROPHIL / BASOPHIL / EOSINOPHIL / ERYTHROCYTE COUNT / HEMATOCRIT / HEMOGLOBIN / LEUKOCYTE COUNT / LYMPHOCYTE / MEAN CORPUSCULAR HEMOGLOBIN / MEAN CORPUSCULAR HEMOGLOBIN CONCENTRATION / MEAN CORPUSCULAR VOLUME / MONOCYTE / NEUTROPHIL / NUCLEATED RED BLOOD CELLS / PLATELET COUNT: tissue Blood; for ALANINE AMINOTRANSFERASE / ALBUMIN / ALKALINE PHOSPHATASE / ASPARTATE AMINOTRANSFERASE / BLOOD UREA NITROGEN / CARBON DIOXIDE / CHLORIDE / CHOLESTEROL / CREATINE PHOSPHOKINASE / CREATININE / GLUCOSE / LACTATE DEHYDROGENASE / LIPASE / PHOSPHORUS / POTASSIUM / SODIUM / TOTAL BILIRUBIN / TOTAL PROTEIN / URIC ACID: tissue Plasma
[1] = 0 mg/kg, 72 h, dose level Control, time 3 day
[2] = 0 mg/kg, 120 h, dose level Control, time 5 day
[3] = 1200 mg/kg, 72 h, dose level High, time 3 day

## CCC[C@@H]1C[C@@H](C(=O)N[C@@H]([C@H]2O[C@H](SC)[C@H](O)[C@@H](O)[C@H]2O)[C@@H](C)O)N(C)C1 [LINCOMYCIN]
[1]
  ABSOLUTE BASOPHIL: 0 CELLS/uL
  ABSOLUTE EOSINOPHIL: 0 CELLS/uL
  ABSOLUTE LYMPHOCYTE: 12269.67 CELLS/uL
  ABSOLUTE MONOCYTE: 160.33 CELLS/uL
  ABSOLUTE SEGMENTED NEUTROPHIL: 970 CELLS/uL
  BASOPHIL: 0%
  EOSINOPHIL: 0%
  ERYTHROCYTE COUNT: 5.76 x10E6/uL
  HEMATOCRIT: 36.57%
  HEMOGLOBIN: 14.22 G/DL
  LEUKOCYTE COUNT: 13.4 x10E3/uL
  LYMPHOCYTE: 91.67%
  MEAN CORPUSCULAR HEMOGLOBIN: 24.67 pg
  MEAN CORPUSCULAR HEMOGLOBIN CONCENTRATION: 38.85 G/DL
  MEAN CORPUSCULAR VOLUME: 63.52 fL
  MONOCYTE: 1.17%
  NEUTROPHIL: 7.17%
  NUCLEATED RED BLOOD CELLS: 0.33 /100WBC
  PLATELET COUNT: 1250.83 x10E3/uL
  ALANINE AMINOTRANSFERASE: 49.17 u/L
  ALBUMIN: 4.33 G/DL
  ALKALINE PHOSPHATASE: 378.5 u/L
  ASPARTATE AMINOTRANSFERASE: 82.17 u/L
  BLOOD UREA NITROGEN: 15 mg/dL
  CARBON DIOXIDE: 34.33 mmol/L
  CHLORIDE: 99.17 MEQ/L
  CHOLESTEROL: 71.17 mg/dL
  CREATINE PHOSPHOKINASE: 258.67 u/L
  CREATININE: 0.18 mg/dL
  GLUCOSE: 142.67 mg/dL
  LACTATE DEHYDROGENASE: 154.33 u/L
  LIPASE: 9 u/L
  PHOSPHORUS: 11.67 mg/dL
  POTASSIUM: 7.13 MEQ/L
  SODIUM: 142.22 MEQ/L
  TOTAL BILIRUBIN: 0.18 mg/dL
  TOTAL PROTEIN: 5.77 G/DL
  URIC ACID: 1.55 mg/dL
[2]
  ABSOLUTE BASOPHIL: 0 CELLS/uL
  ABSOLUTE EOSINOPHIL: 23.33 CELLS/uL
  ABSOLUTE LYMPHOCYTE: 14943.67 CELLS/uL
  ABSOLUTE MONOCYTE: 32 CELLS/uL
  ABSOLUTE SEGMENTED NEUTROPHIL: 1084.33 CELLS/uL
  BASOPHIL: 0%
  EOSINOPHIL: 0.17%
  ERYTHROCYTE COUNT: 5.71 x10E6/uL
  HEMATOCRIT: 35.28%
  HEMOGLOBIN: 14.27 G/DL
  LEUKOCYTE COUNT: 16.08 x10E3/uL
  LYMPHOCYTE: 93%
  MEAN CORPUSCULAR HEMOGLOBIN: 25.02 pg
  MEAN CORPUSCULAR HEMOGLOBIN CONCENTRATION: 40.43 G/DL
  MEAN CORPUSCULAR VOLUME: 61.82 fL
  MONOCYTE: 0.17%
  NEUTROPHIL: 6.67%
  NUCLEATED RED BLOOD CELLS: 0.33 /100WBC
  PLATELET COUNT: 1274 x10E3/uL
  ALANINE AMINOTRANSFERASE: 54.17 u/L
  ALBUMIN: 4.22 G/DL
  ALKALINE PHOSPHATASE: 373.17 u/L
  ASPARTATE AMINOTRANSFERASE: 81.83 u/L
  BLOOD UREA NITROGEN: 16.67 mg/dL
  CARBON DIOXIDE: 30.33 mmol/L
  CHLORIDE: 99 MEQ/L
  CHOLESTEROL: 71 mg/dL
  CREATINE PHOSPHOKINASE: 273.5 u/L
  CREATININE: 0.22 mg/dL
  GLUCOSE: 141.83 mg/dL
  LACTATE DEHYDROGENASE: 153.67 u/L
  LIPASE: 10.33 u/L
  PHOSPHORUS: 11.38 mg/dL
  POTASSIUM: 7.08 MEQ/L
  SODIUM: 142.75 MEQ/L
  TOTAL BILIRUBIN: 0.18 mg/dL
  TOTAL PROTEIN: 6.1 G/DL
  URIC ACID: 1.67 mg/dL
[3]
  ABSOLUTE BASOPHIL: 0 CELLS/uL
  ABSOLUTE EOSINOPHIL: 0 CELLS/uL
  ABSOLUTE LYMPHOCYTE: 14618 CELLS/uL
  ABSOLUTE MONOCYTE: 0 CELLS/uL
  ABSOLUTE SEGMENTED NEUTROPHIL: 1248.67 CELLS/uL
  BASOPHIL: 0%
  EOSINOPHIL: 0%
  ERYTHROCYTE COUNT: 5.99 x10E6/uL
  HEMATOCRIT: 37.8%
  HEMOGLOBIN: 15 G/DL
  LEUKOCYTE COUNT: 15.87 x10E3/uL
  LYMPHOCYTE: 92.33%
  MEAN CORPUSCULAR HEMOGLOBIN: 25.1 pg
  MEAN CORPUSCULAR HEMOGLOBIN CONCENTRATION: 39.73 G/DL
  MEAN CORPUSCULAR VOLUME: 63.2 fL
  MONOCYTE: 0%
  NEUTROPHIL: 7.67%
  NUCLEATED RED BLOOD CELLS: 0 /100WBC
  PLATELET COUNT: 1182.33 x10E3/uL
  ALANINE AMINOTRANSFERASE: 58.67 u/L
  ALBUMIN: 4.3 G/DL
  ALKALINE PHOSPHATASE: 350.33 u/L
  ASPARTATE AMINOTRANSFERASE: 86.33 u/L
  BLOOD UREA NITROGEN: 17.33 mg/dL
  CARBON DIOXIDE: 33.33 mmol/L
  CHLORIDE: 99 MEQ/L
  CHOLESTEROL: 100.67 mg/dL
  CREATINE PHOSPHOKINASE: 190.67 u/L
  CREATININE: 0.21 mg/dL
  GLUCOSE: 155.33 mg/dL
  LACTATE DEHYDROGENASE: 170.67 u/L
  LIPASE: 9.67 u/L
  PHOSPHORUS: 12.27 mg/dL
  POTASSIUM: 7.02 MEQ/L
  SODIUM: 145.6 MEQ/L
  TOTAL BILIRUBIN: 0.23 mg/dL
  TOTAL PROTEIN: 6.23 G/DL
  URIC ACID: 1.33 mg/dL
